Test results as given in US11542273B2, “Amide compound having bet proteolysis-inducing action and medicinal application thereof” (MITSUBISHI TANABE PHARMA CORPORATION, priority 2018, dated 2023).
pIC50: −log10 of the molar value.

Tests used:
[1] = test system: human prostate cancer LNCaP cells; experiment: Cytotoxic action on cancer cells (WST-8, 96 hr); type: cell-based; details: Homo sapiens, LNCaP, 96 h, read-out: LNCaP cytotoxic activity: IC50
Experimental: The cytotoxic action of the compound of the present invention against human cancer cells was evaluated in vitro. In this experiment, (+)-JQ1 (Nature volume 468, pages 1067-1073 (23 Dec. 2010)) known to have an inhibitory activity on the binding of BRD4 protein and a ligand therefor was used as a positive control drug. Respective cells were suspended in 10% FBS/RPMI1640, seeded in a 96 well plate and cultured at 5% CO2, 37° C. overnight. A test compound dissolved in DMSO was diluted with 10% FBS/RPMI1640 and added and the cells were further cultured for 96 hr. After culturing, the viable cell number was measured using a cell number measurement WST-8 kit (Kishida Chemical Co., Ltd.). As a control, the measurement was performed under conditions free of the test compound. The cytotoxic activity of the compound of the present invention against human prostate cancer LNCaP cells is shown in IC50 value in Table 1. […] It was calculated from the straight line connecting the cell survival rate at two points enclosing the 50% cell survival rate and the compound concentration. In addition, the cytotoxic activity against respective cancer cells of human acute myeloid leukemia MV-4-11 cell, human chronic myeloid leukemia K562 cell, human multiple myeloma MM.1S cell, human diffuse large B-cell lymphoma SU-DHL-6 cell, human T-cell leukemia Jurkat cells, human Burkitt lymphoma Raji cell, human castration-resistant prostate cancer PC-3 cell, human ovarian cancer A2780 cell, human bladder cancer 5637 cell, human breast cancer ZR-75-1 cell, human triple negative breast cancer MDA-MB-231 cell, human uterine sarcoma MES-SA cell, human gastric cancer SNU-16 cell, human non-small cell lung cancer NCI-H1975 cell, human small cell lung cancer NCI-H82 cell, human large cell lung cancer NCI-H460 cell, human colorectal cancer HCT116 cell, human glioma U-87 MG cell, human pancreatic cancer AsPC-1 cell, and human liver cancer Hep G2 cell is shown in IC50 value in Table 2.

BRD4 protein = BRD4 protein (Homo sapiens (Human), UniProt O60885); experiment: BRD4 protein degradation inducing action in cancer cells (immunofluorescence, Operetta); type: cell-based; details: LNCaP cells, 6 hr treatment, fluorescence intensity
Experimental: The degradation inducing action of the compound of the present invention on BRD4 protein in cancer cells was evaluated in vitro using human prostate cancer LNCaP cells. LNCaP cells were suspended in 10% FBS/RPMI1640, seeded in a 96 well Cell carrier plate (Perkin Elmer) and cultured at 5% CO2, 37° C. overnight. A test compound dissolved in DMSO was diluted with 10% FBS/RPMI1640 and added and the cells were further cultured for 6 hr. After culturing, the cells were immobilized with 4% para-formaldehyde/PBS and further subjected to a permeation treatment with 0.25% Triton X-100/PBS. Thereafter, the cells were blocked with 10% BSA/PBS, a solution containing Anti-Brd4 antibody (Abcam) or Anti-BRD4 (Sigma-Aldrich) as the primary antibody was added and the cells were incubated at 4° C. overnight. Thereafter, as the secondary antibody, a solution containing secondary antibody A shown below was added to Example compounds 1-190, 223 and 224, and a solution containing secondary antibody B shown below was added to Example compounds 191-222, and 0.5 μg/mL Hoechst 33342 (Sigma-Aldrich) and 14 μM Acti-Stain 555 Fluorescent Phalloidin (Cytoskeleton) were further added. After incubation for 1 hr, BRD4 protein amount was measured by Operetta (Perkin Elmer) as fluorescence intensity.
• Anti-Rabbit IgG(H+L), F(ab′)2 Fragment (Alexa Fluor 488 Conjugate) (Cell Signaling Technology), fluorescence intensity was measured at excitation: 495 nm, emission: 519 nm. Secondary Antibody B • Goat anti-Rabbit IgG(H+L) Cross-Adserbed Secondary Antibody (Alexa Fluor 546) (Thermo Fisher Scientific) fluorescence intensity was measured at excitation: 560 nm, emission: 572 nm.
The BRD4 protein degradation inducing activity of the compound of the present invention in LNCaP cells is shown in DC50 value in Table 3. The DC50 value is a concentration of the compound showing 50% fluorescence intensity when the fluorescence intensity thereof under compound untreated condition is 100%. It was calculated from the straight line connecting the fluorescence intensity at two points enclosing the 50% fluorescence intensity and the compound concentration.

| DC50 (BRD4 protein) | Structure (SMILES) | pIC50 [1] |
| --- | --- | --- |
| 0.3 nM | COC(=O)C[C@@H]1N=C(c2ccc(-c3ccc(O[C@H]4C[C@@H](C(=O)N[C@H](C(=O)N5C[C@H](O)C[C@H]5C(=O)N[C@@H](C)c5ccc(-c6scnc6C)cc5)C(C)(C)C)C4)nc3)cc2)c2c(sc(C)c2C)-n2c(C)nnc21 [Example 162, methyl {(6S)-4-[4-(6-{[cis-3-({(2S)-1-[(2S,4R)-4-hydroxy-2-({(1S)-1-[4-(4-methyl-1,3-thiazol-5-yl)phenyl]ethyl}carbamoyl)pyrrolidin-1-yl]-3,3-dimethyl-1-oxobutan-2-yl}carbamoyl)cyclobutyl]oxy}pyridin-3-yl)phenyl]-2,3,9-trimethyl-6H-thieno[3,2-f][1,2,4]triazolo[4,3-a] [1,4]diazepin-6-yl}acetate] | 9.43 |
| 0.066 nM | COC(=O)C[C@@H]1N=C(c2ccc(-c3ccc4cc(C(=O)N[C@H](C(=O)N5C[C@H](O)C[C@H]5C(=O)N[C@@H](C)c5ccc(-c6scnc6C)cc5)C(C)(C)C)oc4c3)cc2)c2c(sc(C)c2C)-n2c(C)nnc21 [Example 164, methyl [(6S)-4-{4-[2-({(2S)-1-[(2S,4R)-4-hydroxy-2-({(1S)-1-[4-(4-methyl-1,3-thiazol-5-yl)phenyl]ethyl}carbamoyl)pyrrolidin-1-yl]-3,3-dimethyl-1-oxobutan-2-yl}carbamoyl)-1-benzofuran-6-yl]phenyl}-2,3,9-trimethyl-6H-thieno[3,2-f][1,2,4]triazolo[4,3-a][1,4]diazepin-6-yl]acetate] | 10.11 |
| 0.041 nM | COC(=O)C[C@@H]1N=C(c2ccc(-c3ccc(O[C@H]4C[C@H](C(=O)N[C@H](C(=O)N5C[C@H](O)C[C@H]5C(=O)N[C@@H](C)c5ccc(-c6scnc6C)cc5)C(C)(C)C)C4)nc3)cc2)c2c(sc(C)c2C)-n2c(C)nnc21 [Example 165, methyl {(6S)-4-[4-(6-{[trans-3-({(2S)-1-[(2S,4R)-4-hydroxy-2-({(1S)-1-[4-(4-methyl-1,3-thiazol-5-yl)phenyl]ethyl}carbamoyl)pyrrolidin-1-yl]-3,3-dimethyl-1-oxobutan-2-yl}carbamoyl)cyclobutyl]oxy}pyridin-3-yl)phenyl]-2,3,9-trimethyl-6H-thieno[3,2-f][1,2,4]triazolo[4,3-a] [1,4]diazepin-6-yl}acetate] | 9.59 |
| 0.28 nM | COC(=O)C[C@@H]1N=C(c2ccc(-c3cncc(C(=O)N[C@H](C(=O)N4C[C@H](O)C[C@H]4C(=O)N[C@@H](C)c4ccc(-c5scnc5C)cc4)C(C)(C)C)n3)cc2)c2c(sc(C)c2C)-n2c(C)nnc21 [Example 167, methyl [(6S)-4-{4-[6-({(2S)-1-[(2S,4R)-4-hydroxy-2-({(1S)-1-[4-(4-methyl-1,3-thiazol-5-yl)phenyl]ethyl}carbamoyl)pyrrolidin-1-yl]-3,3-dimethyl-1-oxobutan-2-yl}carbamoyl)pyrazin-2-yl]phenyl}-2,3,9-trimethyl-6H-thieno[3,2-f][1,2,4]triazolo[4,3-a][1,4]diazepin-6-yl]acetate] | 9.85 |

The remaining lines, values behind:

| Structure (SMILES) | DC50 (BRD4 protein) | pIC50 [1] |
| --- | --- | --- |
| COC(=O)C[C@@H]1N=C(c2ccc(-c3ccc(C(=O)N[C@H](C(=O)N4C[C@H](O)C[C@H]4C(=O)N[C@@H](C)c4ccc(-c5scnc5C)cc4)C(C)(C)C)s3)cc2)c2c(sc(C)c2C)-n2c(C)nnc21 [Example 141, methyl [(6S)-4-{4-[5-({(2S)-1-[(2S,4R)-4-hydroxy-2-({(1S)-1-[4-(4-methyl-1,3-thiazol-5-yl)phenyl]ethyl}carbamoyl)pyrrolidin-1-yl]-3,3-dimethyl-1-oxobutan-2-yl}carbamoyl)thiophen-2-yl]phenyl}-2,3,9-trimethyl-6H-thieno[3,2-f][1,2,4]triazolo[4,3-a][1,4]diazepin-6-yl]acetate] | 0.72 nM | 9.42 |
| COC(=O)C[C@@H]1N=C(c2ccc(-c3ccc4c(c3)N(CC(=O)N[C@H](C(=O)N3C[C@H](O)C[C@H]3C(=O)N[C@@H](C)c3ccc(-c5scnc5C)cc3)C(C)(C)C)C(=O)CC4)cc2)c2c(sc(C)c2C)-n2c(C)nnc21 [Example 146, methyl [(6S)-4-(4-{1-[2-({(2S)-1-[(2S,4R)-4-hydroxy-2-({(1S)-1-[4-(4-methyl-1,3-thiazol-5-yl)phenyl]ethyl}carbamoyl)pyrrolidin-1-yl]-3,3-dimethyl-1-oxobutan-2-yl}amino)-2-oxoethyl]-2-oxo-1,2,3,4-tetrahydroquinolin-7-yl}phenyl)-2,3,9-trimethyl-6H-thieno[3,2-f] [1,2,4]triazolo[4,3-a][1,4]diazepin-6-yl]acetate] | 0.46 nM | 9.36 |
| COC(=O)C[C@@H]1N=C(c2ccc(-c3cccc4c3CN(CC(=O)N[C@H](C(=O)N3C[C@H](O)C[C@H]3C(=O)N[C@@H](C)c3ccc(-c5scnc5C)cc3)C(C)(C)C)CC4)cc2)c2c(sc(C)c2C)-n2c(C)nnc21 [Example 147, methyl [(6S)-4-(4-{2-[2-({(2S)-1-[(2S,4R)-4-hydroxy-2-({(1S)-1-[4-(4-methyl-1,3-thiazol-5-yl)phenyl]ethyl}carbamoyl)pyrrolidin-1-yl]-3,3-dimethyl-1-oxobutan-2-yl}amino)-2-oxoethyl]-1,2,3,4-tetrahydroisoquinolin-8-yl}phenyl)-2,3,9-trimethyl-6H-thieno[3,2-f] [1,2,4]triazolo[4,3-a][1,4]diazepin-6-yl]acetate] | 0.28 nM | 9.47 |
| COC(=O)C[C@@H]1N=C(c2ccc(N3CCc4cc(OCC(=O)N[C@H](C(=O)N5C[C@H](O)C[C@H]5C(=O)N[C@@H](C)c5ccc(-c6scnc6C)cc5)C(C)(C)C)ccc43)cc2)c2c(sc(C)c2C)-n2c(C)nnc21 [Example 151, methyl [(6S)-4-(4-{5-[2-({(2S)-1-[(2S,4R)-4-hydroxy-2-({(1S)-1-[4-(4-methyl-1,3-thiazol-5-yl)phenyl]ethyl}carbamoyl)pyrrolidin-1-yl]-3,3-dimethyl-1-oxobutan-2-yl}amino)-2-oxoethoxy]-2,3-dihydro-1H-indol-1-yl}phenyl)-2,3,9-trimethyl-6H-thieno[3,2-f][1,2,4]triazolo[4,3-a] [1,4]diazepin-6-yl]acetate] | 0.042 nM | 10.24 |
| COC(=O)C[C@@H]1N=C(c2ccc(-c3ccc(OCC(=O)N[C@H](C(=O)N4C[C@H](O)C[C@H]4C(=O)N[C@@H](C)c4ccc(-c5scnc5C)cc4)C(C)(C)C)c(CO)c3)cc2)c2c(sc(C)c2C)-n2c(C)nnc21 [Example 154, methyl [(6S)-4-{3′-(hydroxymethyl)-4′-[2-({(2S)-1-[(2S,4R)-4-hydroxy-2-({(1S)-1-[4-(4-methyl-1,3-thiazol-5-yl)phenyl]ethyl}carbamoyl)pyrrolidin-1-yl]-3,3-dimethyl-1-oxobutan-2-yl}amino)-2-oxoethoxy][1,1′-biphenyl]-4-yl}-2,3,9-trimethyl-6H-thieno[3,2-f][1,2,4]triazolo[4,3-a][1,4]diazepin-6-yl]acetate] | 0.42 nM | 9.35 |
| COC(=O)C[C@@H]1N=C(c2ccc(N3CCc4ccc(C(=O)N[C@H](C(=O)N5C[C@H](O)C[C@H]5C(=O)N[C@@H](C)c5ccc(-c6scnc6C)cc5)C(C)(C)C)cc4C3)cc2)c2c(sc(C)c2C)-n2c(C)nnc21 [Example 161, methyl [(6S)-4-{4-[7-({(2S)-1-[(2S,4R)-4-hydroxy-2-({(1S)-1-[4-(4-methyl-1,3-thiazol-5-yl)phenyl]ethyl}carbamoyl)pyrrolidin-1-yl]-3,3-dimethyl-1-oxobutan-2-yl}carbamoyl)-3,4-dihydroisoquinolin-2(1H)-yl]phenyl}-2,3,9-trimethyl-6H-thieno[3,2-f][1,2,4]triazolo[4,3-a][1,4]diazepin-6-yl]acetate] | 0.075 nM | 9.66 |
